Results on one compound are retold here after patent US9968620B2, “Methods of treating lymphoma using thienotriazolodiazepine compounds” (ONCOETHIX GmbH, priority 2014, dated 2018).

A short description of data set [1]: Oral exposure in the rat (pharmacokinetics). The data set is classed as in vivo, Sprague Dawley rats. Conditions: rats, 1 mg/kg intravenous.
Data set [2] is described as follows: Antiproliferative activity by MTT. The note with it: B-cell. The data set is classed as cell-based. How it is done:
(§1) Cell lines: 22 diffuse large B-cell lymphoma (DLBCL), 4 mantle cell lymphomas, 3 multiple myelomas, 3 splenic marginal zone lymphoma and 1 prolymphocytic leukemia. […]. Data mining was done with LIMMA, GSEA, Metacore. Synergy was assessed in cells (2-5 cell lines) exposed for 72 h to increasing doses of compound (1-1) alone or in combination with increasing doses of other agents. MTT assays were performed and Chou-Talalay combination index (CI) calculated.

In data set [3] the test system is 22 diffuse large B-cell lymphoma (DLBCL), 4 mantle cell lymphomas, 3 multiple myelomas, 3 splenic marginal zone lymphoma and 1 prolymphocytic leukemia cell …. Put plainly: Antiproliferative activity by MTT. The data set is classed as cell-based. Conditions: 500 nM, 72 h; 88%. As for the experimental part: as §1
For another data set, the system named is lymphoma cell lines. Put plainly: Cytotoxic activity (apoptosis) by Annexin V staining. The data set is classed as cell-based. Conditions: 500 nM, 72 h; 14%.
Data set [4] relates to SU-DHL-6, SU-DHL-2 cell lines. Put plainly: Gene expression profiling (GEP), Illumina HumanHT-12. Format: cell-based, human. The note with it: 500 nM, 1, 2, 4, 8 or 12 hours. As for the experimental part:
Cell lines: 22 diffuse large B-cell lymphoma (DLBCL), 4 mantle cell lymphomas, 3 multiple myelomas, 3 splenic marginal zone lymphoma and 1 prolymphocytic leukemia. Antiproliferative activity of compound (1-1) (OncoEthix SA, Switzerland) was assessed by MTT and its cytotoxic activity by Annexin V staining and gene expression profiling (GEP) with Illumina HumanHT-12 Expression BeadChips. Data mining was done with LIMMA, GSEA, Metacore. Synergy was assessed in cells (2-5 cell lines) exposed for 72 h to increasing doses of compound (1-1) alone or in combination with increasing doses of other agents. MTT assays were performed and Chou-Talalay combination index (CI) calculated.
We performed GEP on 2 cell lines (SU-DHL-6, SU-DHL-2), treated with DMSO or compound (1-1) (500 nM) for 1, 2, 4, 8 or 12 hours.

The test system of data set [5] is NFKB target genes (IRF4, TNF AIP3 and BIRC3). Put plainly: PCR of NFKB target genes. Format: cell-based.
Another data set relates to ABC cell lines. Put plainly: Immunoblotting and immunohistochemistry. The data set is classed as cell-based.
A further data set deals with IL10 and IL4 production. Put plainly: IL10 and IL4 production. Format: cell-based. The note with it: after 24 hours treatment.
For data set [6], the system named is DOHH2 and SU-DHL-2 DLBCL cell lines. Put plainly: miRNA profiling, Agilent Human microRNA microarray. Format: cell-based. The note with it: 500 nM vs DMSO, 4 h or 8 h. How it is done: (§2) Total RNA was extracted from 2 DLBCL cell lines, the germinal center B-cell (GCB) type DOHH2 and from the activated B-cell-like (ABC)-type SU-DHL-2, following treatment with compound (1-1) (500 nM) or DMSO for 4 h or 8 h. RNA samples were labeled with cyanine-3 dye using the Agilent microRNA Complete Labeling System & Hyb Kit and hybridized to the Agilent Human microRNA microarray v.3. Raw expression values were obtained with Agilent Feature Extraction Software, log-transformed and normalized by the quantile method. Data were filtered to exclude relatively invariant features and those below the detection threshold. Limma (Linear Models for Microarray data analysis) was employed using R/Bioconductor and the filtered dataset. Baseline miRNA profiling was obtained in 22 DLBCL cell lines with the Nanostring nCounter Human v2 miRNA Expression Assay kit. Baseline gene expression profiling (GEP) was obtained in the 22 cell lines with the Illumina HumanHT-12 v4 Expression BeadChip. Selected miRNA changes were validated by real-time PCR. The miRWalk database (Dweep et al, 2011) was used to retrieve the validated miRNA targets. Gene Set Enrichment Analysis (GSEA) software was used to assess enrichment of miRNA targets in the GEP datasets.
Total RNA was extracted from 2 diffuse large B-Cell lymphoma (DLBCL) cell lines, the germinal center B-cell (GCB) type DOHH2 and activated B-cell-like (ABC)-type SU-DHL-2, following treatment with 500 nM compound (1-1) or DMSO for 4 h or 8 h. RNA samples were labeled with cyanine-3 dye using the Agilent microRNA Complete Labeling System & Hyb Kit and hybridized to the Agilent Human microRNA microarray v.3. Raw expression values were obtained with Agilent Feature Extraction Software, log-transformed and normalized by the quantile method. Data were filtered to exclude relatively invariant features and those below the detection threshold. Limma was employed using R/Bioconductor and the filtered dataset. […]

The subject of a further data set is DLBCL cell lines. Nature of the data set: GEP variations of validated miRNA target genes. The data set is classed as cell-based, human. How it is done:
as §2
Total RNA was extracted from 2 diffuse large B-Cell lymphoma (DLBCL) cell lines, the germinal center B-cell (GCB) type DOHH2 and activated B-cell-like (ABC)-type SU-DHL-2, following treatment with 500 nM compound (1-1) or DMSO for 4 h or 8 h. RNA samples were labeled with cyanine-3 dye using the Agilent microRNA Complete Labeling System & Hyb Kit and hybridized to the Agilent Human microRNA microarray v.3. Raw expression values were obtained with Agilent Feature Extraction Software, log-transformed and normalized by the quantile method. Data were filtered to exclude relatively invariant features and those below the detection threshold. Limma was employed using R/Bioconductor and the filtered dataset. Baseline microRNA (abbreviated miRNA) profiling was obtained from 30 B-cell lymphoma cell lines, including 22 DLBCL with the Nanostring nCounter Human v2 miRNA Expression Assay kit. Baseline gene expression profiling (GEP) was obtained with the Illumina HumanHT-12 v4 Expression BeadChip. Selected miRNA changes were validated by real-time PCR. Validated miRNA targets were retrieved using the miRWalk database (Dweep et al, 2011). […] Changes in these miRNAs matched GEP variations of validated target genes (e.g., miR-92a-1-5p: CDKN1A, log 2 FC, 0.81, CDKN2A, log 2 FC, 0.81; miR-96-5p: MYC, log 2 FC, −0.57, MYD88, log 2 FC, −0.35).

Each structure is given as a SMILES string. pIC50: −log10 of the molar value.

`Cc1sc2c(c1C)C(c1ccc(Cl)cc1)=N[C@@H](CC(=O)Nc1ccc(O)cc1)c1nnc(C)n1-2` [Compound (1-1), 2-[(6S)-4-(4-chlorophenyl)-2,3,9-trimethyl-6H-thienol[3,2-f]-[1,2,4]triazolo[4,3-a][1,4]diazepin-6-yl]-N-(4-hydroxyphenyl)acetamide dihydrate] had a CI/F in data set [1] of 13.4 mL/min/kg. In data set [2] (cell lines with lower sensitivity (8 of 22 DLBCL cell lines)), the negative logarithm of the IC50 (pIC50) was less than 6.30. In addition, the negative-log IC50 (pIC50) in data set [2] (sensitive cell lines (14 of 22 DLBCL cell lines)) was greater than 6.30. Also, in data set [3], the “cell lines showing cytostatic activity” value was 29/33. Also, the “cell lines showing apoptosis” value in the data set on lymphoma cell lines was 3/22. Besides, in data set [4], the “expression of MYC (GEP)” value is reported as “most frequently downregulated gene”; the “expression of MYD88, IRAK1, TLR6, IL6, STAT3, and TNFRSF17 (NFKB, TLR and JAK/STAT pathways)” value is listed as “downregulated”; the “expression of histone genes (GEP)” value is on record as “upregulated”. Moreover, in [5], the “expression of NFKB target genes (IRF4, TNF AIP3 and BIRC3)” value is on record as “downregulated”. Also, the “transcriptionally active pSTAT3” value in the data set with ABC cell lines (2 ABC cell lines) is on record as “reduction”. In the data set on ABC cell lines (ABC cell lines), the “nuclear localization of p50 (NFKB 1)” value is recorded as “reduction”. Further, in the data set with IL10 and IL4 production, the “IL10 and IL4 production” value is recorded as “reduced”. Besides, in [6], the “miR-21-3p expression, log 2 FC” value is reported as −0.37 log 2 FC; the “miR-92a-1-5p expression, log 2 FC” value is −2.01 log 2 FC; the “miR-96-5p expression, log 2 FC” value was 0.39 log 2 FC. For the same compound, in the data set with DLBCL cell lines, the “CDKN1A expression (miR-92a-1-5p target), log 2 FC” value came out at 0.81 log 2 FC; the “CDKN2A expression (miR-92a-1-5p target), log 2 FC” value is recorded as 0.81 log 2 FC; the “MYC expression (miR-96-5p target), log 2 FC” value is listed as −0.57 log 2 FC; the “MYD88 expression (miR-96-5p target), log 2 FC” value is given as −0.35 log 2 FC.
